In one experiment the test system is THP-1 cells. Briefly: Cytokine release from human THP-1 cells (multiplex analysis of culture medium). The experiment is classed as cell-based. The settings on record: FIG. 19. The procedure: THP-1 cells, a human cell line derived from monocytes, were treated in vitro with vehicle, the P2Y6 receptor antagonist MRS 2578, or compound 5, singly or in combination. THP-1 cells were seeded in 24 well plates at a density of 4×10^5 cells/well in culture medium for 24 hours. Thereafter, vehicle, compound 5, or MRS 2578 (singly or in combination) were added to the cultures for 24 hours. Subsequently the culture medium was aspirated and subjected to multiplex cytokine analysis. Data are presented as means+/−sem. MRS 2578 has a molecular weight of about 472 and is also described using CAS number 711019-86-2.

Experiment [1] relates to PSAPP mice. Briefly: Plaque load in cortex and hippocampus by amyloid beta immunostaining. The settings on record: 10 μg/kg i.p. once per day for 7 days; PS1/APP mice 26 weeks; cortex; FIG. 6B. It counts as in vivo, mouse.
Experiment [2] deals with PSAPP mice. Briefly: Contextual fear conditioning test (freezing). The settings on record: vs vehicle. The experiment is classed as in vivo, mouse. The procedure:
In this study, the diphosphate derivative of compound 5 was injected intraperitoneally into 6 to 7-month-old PSAPP and WT mice daily at two different doses, i.e., 1 μg/kg or 1 mg/kg of the diphosphate derivative of compound 5 (in 1% DMSO/PBS) for 7 consecutive days. Consistent with the results observed following acute UDP or PSB0474 treatment, treatment with the diphosphate derivative of compound 5 increased total freezing percentage in the context test in PSAPP mice (FIG. 4). […] FIG. 4 depicts the results of experiments using the contextual fear conditioning test with PSAPP mice treated with vehicle control (black bar at center of graph). […]
In this study, treatment of PSAPP mice commenced when the mice were pre-symptomatic. […] Following treatment, mice were assessed in a fear conditioning task for memory formation. Subsequently, plaque burden in the mice was also evaluated. […]
Treatment with compound 5 prevented impairments in contextual fear memory. […] Memory is assessed by the percent time that mice “freeze” 24 hours after a fear inducing electric shock. […]
In this study, treatment of PSAPP mice commenced when the mice were pre-symptomatic. […] Following treatment, mice were assessed for the following: concentration of circulating pro-inflammatory cytokines; amyloid beta load (e.g., plaque burden); and memory in a fear conditioning task for memory formation. […]

For `O=c1ccn([C@@H]2O[C@H](CO)C(O)C2O)c(=O)n1Cc1noc2ccccc12` (stereo in doubt) [compound 5], the “effect of compound 5 on release of IL-7” value in the experiment on THP-1 cells (co-treatment with MRS 2578) is given as “abrogated”. Also, the “release of IL-7 into culture media” value in the experiment with THP-1 cells (compound 5 10 nM, 24 hours, vs vehicle) is given as “decreased”. For the same molecule, the Aβ42 plaque burden entry with PSAPP mice [1] is reported as “significantly reduced”. Moreover, the “freezing time in contextual fear memory test” value in the experiment with PSAPP mice [2] (10 μg/kg i.p. daily for 100 days from ~3 months of age, Example 17, FIG. 8) is reported as “statistically significant increase”; in the experiment with PSAPP mice [2] (10 μg/kg i.p. daily for 100 days from ~3 months, Example 19, FIG. 15(C)), “statistically significant increase”.
